# US9273058B2 (BRISTOL-MYERS SQUIBB COMPANY, priority 2013, dated 2016)
# pIC50: −log10 of the molar value. Where two headings read alike, the source gives them in different places.
# Tests used:
# [1] = molecular target: CK1ε (Homo sapiens, UniProt P49674); assay: CK1ε kinase assay (Caliper LabChip electrophoretic separation of fluoresceinated peptide substrate and product); type: biochemical; conditions: 200 pM CK1ε, 50 μM ATP, 1.5 μM peptide, 22 hours at room temperature
# Summary of the method: (§1)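 Reactions ran 22 hours at room temperature and were stopped with EDTA. Phosphorylated product and unphosphorylated substrate were then separated electrophoretically. Compounds were tested at eleven concentrations, and IC50 values came from non-linear regression.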
# [2] = molecular target: CK1δ (Homo sapiens, UniProt P48730); assay: CK1δ kinase assay (Caliper LabChip electrophoretic separation of fluoresceinated peptide substrate and product); type: biochemical; conditions: 200 pM CK1δ, 50 μM ATP, 1.5 μM peptide, 22 hours at room temperature
# Sequence of CK1δ (P48730 whole entry): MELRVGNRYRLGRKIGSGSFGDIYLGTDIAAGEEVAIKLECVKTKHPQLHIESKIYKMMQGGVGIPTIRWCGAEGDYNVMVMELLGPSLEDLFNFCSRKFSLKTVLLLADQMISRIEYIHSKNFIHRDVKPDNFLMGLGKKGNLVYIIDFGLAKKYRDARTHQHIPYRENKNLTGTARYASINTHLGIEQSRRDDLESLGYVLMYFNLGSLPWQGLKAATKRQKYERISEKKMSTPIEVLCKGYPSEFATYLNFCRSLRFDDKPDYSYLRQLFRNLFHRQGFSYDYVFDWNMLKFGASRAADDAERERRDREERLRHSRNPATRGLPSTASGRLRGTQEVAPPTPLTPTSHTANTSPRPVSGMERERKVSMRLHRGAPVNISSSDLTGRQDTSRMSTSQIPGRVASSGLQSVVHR
# Summary of the method: as §1
# Sequence of CK1ε (P49674 whole entry): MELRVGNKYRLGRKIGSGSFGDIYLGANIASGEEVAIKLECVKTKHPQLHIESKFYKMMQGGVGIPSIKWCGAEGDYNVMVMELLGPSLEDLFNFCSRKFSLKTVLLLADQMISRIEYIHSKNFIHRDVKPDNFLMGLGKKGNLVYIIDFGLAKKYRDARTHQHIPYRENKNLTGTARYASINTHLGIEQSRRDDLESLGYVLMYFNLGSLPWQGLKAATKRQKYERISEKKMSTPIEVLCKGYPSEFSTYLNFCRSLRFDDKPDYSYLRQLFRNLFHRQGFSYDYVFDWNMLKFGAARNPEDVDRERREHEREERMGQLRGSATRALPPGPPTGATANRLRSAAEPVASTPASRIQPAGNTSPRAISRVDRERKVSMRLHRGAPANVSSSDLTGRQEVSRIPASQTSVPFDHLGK
SMILES,pIC50 ([1]; read-out: CK1ε IC50 range),pIC50 ([2]; read-out: CK1δ IC50 range),pIC50 ([1]; read-out: CK1ε),pIC50 ([2]; read-out: CK1δ)
"NC(=O)c1c(-c2cccc(F)c2)nn2c1CN(C(=O)Nc1c(F)cc(F)cc1F)CC2 [Compound 40, 2-(3-Fluorophenyl)-N^5-(2,4,6-trifluorophenyl)-6,7-dihydropyrazolo[1,5-a]pyrazine-3,5(4H)dicarboxamide]",5.70 to 7.00,7.00 to 8.00,,
"NC(=O)c1c(-c2cccc(F)c2)nn2c1CN(C(=O)NCCc1ccc(F)cc1)CC2 [Compound 42, N^5-(4-Fluorophenethyl)-2-(3-fluorophenyl)-6,7-dihydropyrazolo[1,5-a]pyrazine-3,5(4H)-dicarboxamide]",5.70 to 7.00,7.00 to 8.00,,
"NC(=O)c1c(-c2cccc(F)c2)nn2c1CN(C(=O)Nc1ccc(Cl)cc1Cl)CC2 [Compound 43, N^5-(2,4-Dichlorophenyl)-2-(3-fluorophenyl)-6,7-dihydropyrazolo[1,5-a]pyrazine-3,5(4H)-dicarboxamide]",7.00 to 8.00,7.00 to 8.00,,
"COc1ccc(CCNC(=O)N2CCn3nc(-c4cccc(F)c4)c(C(N)=O)c3C2)cc1 [Compound 47, 2-(3-Fluorophenyl)-N^5-(4-methoxyphenethyl)-6,7-dihydropyrazolo[1,5-a]pyrazine-3,5(4H)-dicarboxamide]",5.70 to 7.00,7.00 to 8.00,,
"NC(=O)c1c(-c2cccc(F)c2)nn2c1CN(C(=O)Nc1ccccc1C(F)(F)F)CC2 [Compound 48, 2-(3-Fluorophenyl)-N^5-(2-(trifluoromethyl)phenyl)-6,7-dihydropyrazolo[1,5-a]pyrazine-3,5(4H)-dicarboxamide]",5.70 to 7.00,7.00 to 8.00,,
"NC(=O)c1c(-c2cccc(F)c2)nn2c1CN(C(=O)Nc1cccc3ccccc13)CC2 [Compound 52, 2-(3-Fluorophenyl)-N^5-(naphthalen-1-yl)-6,7-dihydropyrazolo[1,5-a]pyrazine-3,5(4H)-dicarboxamide]",7.00 to 8.00,7.00 to 8.00,,
"N#Cc1cccc(NC(=O)N2CCn3nc(-c4cccc(F)c4)c(C(N)=O)c3C2)c1 [Compound 54, N^5-(3-Cyanophenyl)-2-(3-fluorophenyl)-6,7-dihydropyrazolo[1,5-a]pyrazine-3,5(4H)-dicarboxamide]",8.00 to 11.00,8.00 to 11.00,,
"NC(=O)c1c(-c2cccc(F)c2)nn2c1CN(C(=O)Nc1ccc(Cl)cc1C(F)(F)F)CC2 [Compound 57, N^5-(4-Chloro-2-(trifluoromethyl)phenyl)-2-(3-fluorophenyl)-6,7-dihydropyrazolo[1,5-a]pyrazine-3,5(4H)-dicarboxamide]",5.70 to 7.00,7.00 to 8.00,,
"N#Cc1ccc(NC(=O)N2CCn3nc(-c4cccc(F)c4)c(C(N)=O)c3C2)cc1 [Compound 61, N^5-(4-Cyanophenyl)-2-(3-fluorophenyl)-6,7-dihydropyrazolo[1,5-a]pyrazine-3,5(4H)-dicarboxamide]",8.00 to 11.00,8.00 to 11.00,8.30,8.59
"NC(=O)c1c(-c2cccc(F)c2)nn2c1CN(C(=O)Nc1c(Cl)cccc1C(F)(F)F)CC2 [Compound 65, N^5-(2-Chloro-6-(trifluoromethyl)phenyl)-2-(3-fluorophenyl)-6,7-dihydropyrazolo[1,5-a]pyrazine-3,5(4H)-dicarboxamide]",5.70 to 7.00,5.70 to 7.00,,
"COc1cc(NC(=O)N2CCn3nc(-c4cccc(F)c4)c(C(N)=O)c3C2)ncn1 [Compound 75, 2-(3-Fluorophenyl)-N^5-(6-methoxypyrimidin-4-yl)-6,7-dihydropyrazolo[1,5-a]pyrazine-3,5(4H)-dicarboxamide]",7.00 to 8.00,7.00 to 8.00,,
"Cc1ccc(NC(=O)N2CCn3nc(-c4cccc(F)c4)c(C(N)=O)c3C2)nn1 [Compound 83, 2-(3-Fluorophenyl)-N^5-(6-methylpyridazin-3-yl)-6,7-dihydropyrazolo[1,5-a]pyrazine-3,5(4H)-dicarboxamide]",7.00 to 8.00,5.70 to 7.00,,
"NC(=O)c1c(-c2cccc(F)c2)nn2c1CN(C(=O)Nc1ccc(O)nc1)CC2 [Compound 88, 2-(3-Fluorophenyl)-N^5-(6-hydroxypyridin-3-yl)-6,7-dihydropyrazolo[1,5-a]pyrazine-3,5(4H)-dicarboxamide]",7.00 to 8.00,7.00 to 8.00,,
"NC(=O)c1c(-c2cccc(F)c2)nn2c1CN(C(=O)Nc1cccnn1)CC2 [Compound 91, 2-(3-Fluorophenyl)-N^5-(pyridazin-3-yl)-6,7-dihydropyrazolo[1,5-a]pyrazine-3,5(4H)-dicarboxamide]",5.70 to 7.00,7.00 to 8.00,,
"NC(=O)c1c(-c2cccc(F)c2)nn2c1CN(C(=O)Nc1ccncc1)CC2 [Compound 92, 2-(3-Fluorophenyl)-N^5-(pyridin-4-yl)-6,7-dihydropyrazolo[1,5-a]pyrazine-3,5(4H)-dicarboxamide]",5.70 to 7.00,5.70 to 7.00,,6.35
"CS(=O)(=O)c1cccc(NC(=O)N2CCn3nc(-c4cccc(F)c4)c(C(N)=O)c3C2)c1 [Compound 93, 2-(3-Fluorophenyl)-N^5-(3-(methylsulfonyl)phenyl)-6,7-dihydropyrazolo[1,5-a]pyrazine-3,5(4H)-dicarboxamide]",8.00 to 11.00,8.00 to 11.00,,
"Cn1nccc1NC(=O)N1CCn2nc(-c3cccc(F)c3)c(C(N)=O)c2C1 [Compound 96, 2-(3-Fluorophenyl)-N^5-(1-methyl-1H-pyrazol-5-yl)-6,7-dihydropyrazolo[1,5-a]pyrazine-3,5(4H)-dicarboxamide]",7.00 to 8.00,7.00 to 8.00,,
"NC(=O)c1c(-c2cccc(F)c2)nn2c1CN(C(=O)NC1CCN(CCC(F)(F)F)CC1)CC2 [Compound 103, 2-(3-Fluorophenyl)-N^5-(1-(3,3,3-trifluoropropyl)piperidin-4-yl)-6,7-dihydropyrazolo[1,5-a]pyrazine-3,5(4H)-dicarboxamide]",5.70 to 7.00,,6.27,7.15
CC(C)(C)NC(=O)N1CCn2nc(-c3ccc(F)c(Cl)c3)c(C(N)=O)c2C1 [Compound 104],8.00 to 11.00,8.00 to 11.00,8.89,9.15
"CC(C)(C)NC(=O)N1CCn2nc(-c3ccc(F)c(F)c3)c(C(N)=O)c2C1 [Compound 106, N^5-(tert-Butyl)-2-(3,4-difluorophenyl)-6,7-dihydropyrazolo[1,5-a] pyrazine-3,5(4H)-dicarboxamide]",7.00 to 8.00,8.00 to 11.00,7.53,8.06
"CC(C)(C)NC(=O)N1CCn2nc(-c3ccccc3F)c(C(N)=O)c2C1 [Compound 107, N^5-(tert-Butyl)-2-(2-fluorophenyl)-6,7-dihydropyrazolo[1,5-a] pyrazine-3,5(4H)-dicarboxamide]",5.70 to 7.00,7.00 to 8.00,6.40,6.98
"CC(C)(C)NC(=O)N1CCn2nc(-c3cccc(Cl)c3)c(C(N)=O)c2C1 [Compound 108, N^5-(tert-Butyl)-2-(3-chlorophenyl)-6,7-dihydropyrazolo[1,5-a] pyrazine-3,5(4H)-dicarboxamide]",8.00 to 11.00,8.00 to 11.00,8.62,9.05
"CC(C)(C)NC(=O)N1CCn2nc(-c3cccc(C(F)(F)F)c3)c(C(N)=O)c2C1 [Compound 110, N^5-(tert-Butyl)-2-(3-(trifluoromethyl)phenyl)-6,7-dihydropyrazolo[1,5-a] pyrazine-3,5(4H)-dicarboxamide]",5.70 to 7.00,7.00 to 8.00,6.81,7.08
